Source: the supplement of paper PMC10307832

Tests used:
Assay in all cases: relative viability (nuclei count vs DMSO), 5 days (fraction); higher = more cells survive
[1] = compound: Cc1ccc(NC(=O)c2ccc(CN3CCN(C)CC3)cc2)cc1Nc1nc(-c2cccnc2)cs1 [Masitinib] + O=C(c1cc(Cc2n[nH]c(=O)c3ccccc23)ccc1F)N1CCN(C(=O)C2CC2)CC1 [Olaparib] (partner 8 µM)
In short: (§1)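 A single step with final 0.05% Triton X-100, 1% formaldehyde and 1 ug/ml Hoechst fixed the cells and stained nuclei 5 days after treatment. Lung cancer cell lines in 1536-well plates had been treated by pin tool the day after seeding with one drug alone or a fixed anchor-drug dose plus five library-drug doses (not always all listed) in √10 steps, and nuclei were counted on 4× images. Relative viability is the ratio of nuclei in treated wells to nuclei in vehicle wells, taken as the median of duplicate plates.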

[2] = compound: CC1=CC(=CC=C1)NC2=NC(=CS2)C3=CC=NC=C3 + C[C@]1(O)C[C@@H](c2nc(-c3ccc4ccc(-c5ccccc5)nc4c3)c3c(N)nccn32)C1 [Linsitinib] (partner 1 µM)
In short: as §1

[3] = compound: Cc1ccc(NC(=O)c2ccc(CN3CCN(C)CC3)cc2)cc1Nc1nc(-c2cccnc2)cs1 [Masitinib] + Nc1nc2[nH]cc(CCc3ccc(C(=O)N[C@@H](CCC(=O)O)C(=O)O)cc3)c2c(=O)[nH]1 [Pemetrexed] (partner 0.2 µM)
In short: as §1

[4] = compound: Cc1ccc(NC(=O)c2ccc(CN3CCN(C)CC3)cc2)cc1Nc1nc(-c2cccnc2)cs1 [Masitinib] + C[C@@H](Oc1cc(-c2cnn(C3CCNCC3)c2)cnc1N)c1c(Cl)ccc(F)c1Cl [Crizotinib] (partner 1 µM)
In short: as §1

| Cell Line | relative viability ([1]; first compound 0.01 µM) | relative viability ([1]; first compound 0.03162 µM) | relative viability ([1]; first compound 0.1 µM) | relative viability ([1]; first compound 0.3162 µM) | relative viability ([1]; first compound 1 µM) | relative viability ([2]; first compound 0.08 µM) | relative viability ([2]; first compound 0.253 µM) | relative viability ([2]; first compound 0.8 µM) | relative viability ([2]; first compound 2.53 µM) | relative viability ([2]; first compound 8 µM) | relative viability ([3]; first compound 0.01 µM) | relative viability ([3]; first compound 0.03162 µM) | relative viability ([3]; first compound 0.1 µM) | relative viability ([3]; first compound 0.3162 µM) | relative viability ([3]; first compound 1 µM) | relative viability ([4]; first compound 0.01 µM) | relative viability ([4]; first compound 0.03162 µM) | relative viability ([4]; first compound 0.1 µM) | relative viability ([4]; first compound 0.3162 µM) | relative viability ([4]; first compound 1 µM) |
| --- | --- | --- | --- | --- | --- | --- | --- | --- | --- | --- | --- | --- | --- | --- | --- | --- | --- | --- | --- | --- |
| NCI-H2347 | 0.507 | 0.591 | 0.597 | 0.621 | 0.53 | 0.751 | 0.802 | 0.688 | 0.948 | 0.93 | 0.425 | 0.406 | 0.385 | 0.446 | 0.417 | 0.731 | 0.759 | 0.891 | 0.707 | 0.688 |
| 201T | 0.702 | 0.901 | 0.765 | 0.721 | 0.806 | 1.03 | 1.05 | 1 | 0.817 | 0.852 | 0.309 | 0.343 | 0.319 | 0.347 | 0.345 | 0.836 | 1.03 | 0.99 | 1.02 | 0.935 |
| NCI-H358 | 0.549 | 0.621 | 0.603 | 0.604 | 0.607 | 0.733 | 0.798 | 0.639 | 0.8 | 0.666 | 0.16 | 0.169 | 0.167 | 0.163 | 0.178 | 0.406 | 0.534 | 0.588 | 0.473 | 0.533 |
| NCI-H520 | 0.305 | 0.409 | 0.362 | 0.332 | 0.277 | 0.91 | 0.935 | 0.975 | 0.986 | 1 | 0.652 | 0.851 | 0.731 | 0.77 | 0.857 | 0.766 |  | 0.921 | 0.908 | 0.577 |
| HCC-15 | 0.628 | 0.669 | 0.753 | 0.735 | 0.82 | 0.872 | 0.859 | 0.828 | 0.791 | 0.754 | 0.226 | 0.24 | 0.212 | 0.203 | 0.226 | 0.745 | 0.826 | 0.798 | 1.04 | 0.976 |
| LCLC-103H |  | 0.747 | 0.75 | 0.758 | 0.781 | 0.942 | 0.967 | 1.01 | 1.24 | 1.03 |  | 0.465 | 0.416 | 0.469 | 0.424 | 0.783 | 1.08 | 0.891 | 0.969 | 1.03 |
| NCI-H460 | 0.38 | 0.381 | 0.436 | 0.463 | 0.415 | 0.736 | 0.95 | 0.605 | 0.862 | 0.525 | 0.0557 | 0.0629 | 0.0594 | 0.0647 | 0.0579 | 0.748 | 0.763 | 1.03 | 0.647 | 0.911 |
| EPLC-272H | 0.927 |  | 0.866 | 0.655 | 0.768 | 1.08 |  | 1.05 |  | 1.19 | 0.32 |  | 0.348 | 0.399 | 0.249 | 0.881 | 0.81 | 0.803 | 0.842 | 0.871 |
